Reference: US9738610B2, “Indazole derivatives and uses thereof” (Whitehead Institute for Biomedical Research, priority 2012, dated 2017)
Where two headings read alike, the source gives them in different places.

Legend:
Plasma stability = details: % remaining in human plasma after a 5-hour incubation
Plasma protein binding = details: % bound in human plasma
C. albicans CaCi-2 [1] = test: Secondary single-agent (no-fluconazole) activity assay; assay type: cell-based, Candida albicans; details: in the absence of fluconazole; read-out: Target Potency (μM) Mean ± S.E.M CaCi-2^b IC50
Protocol: Clear, flat-bottom, black, 384-well plates were obtained from Corning. […] Pen/Strep was obtained from Gibco and prepared 100× in PBS. Fluconazole was obtained from Sigma and prepared in 2 mg/ml stock solution in PBS. Alamar Blue was obtained from Biosource International (Catalog No. DAL1100). Phosphate buffered solution (PBS) without calcium and magnesium was obtained from Cellgro.
Fungal inoculum was prepared as follows: 500 μl of yeast was inoculated from cryopreserved stock into a 250-ml shaker flask containing 30 ml growth medium and shaken overnight (16 hours) at 30° C. The culture was spun down, and the broth was poured off and washed with RPMI medium. The culture was spun down again, and the broth was poured off and resuspended in RPMI medium. The OD 600 of 1 ml of fungal culture in a cuvette was read using a standard optical density reader with growth medium as a background blank. The desired volume of fungal inoculum was diluted to starting OD of the fungal inoculum of 0.00015 A600.
Pen/Strep was added to the media to a final 1% concentration. A Combi NL (Thermo) was used to dispense 20 μl/well of assay media into all wells. Geldanamycin (1.5 mM) and fluconazole (0.2 mg/ml) were mixed for the positive control. Then, 80 nl of positive control solution was dispensed into the positive control wells using Thermo Combi nL for a final concentration of 3 μM geldanamycin and 8 μg/ml fluconazole. Then, 100 nl of test compound were pinned from the compound plates into assay plates using a CyBi-Well pin tool. A further 20 μl/well of RPMI synthetic defined medium culture was dispensed into 384-well, black plates. Fungal suspension (20 μl/well) was dispensed into all wells. The plates were incubated in a humidified (90% humidity) Liconic incubator at 37° C. without agitation for 48 hours. Alamar Blue Reagent was diluted 1:40 in Ca/Mg-free PBS. To all plates, 6.4 μl/well of the diluted Alamar Blue was added to the plates to a final dilution factor of 1:200. The plates were incubated for 2 hours at room temperature. Next, RFU of wells was read on a standard plate reader as a measure of relative fungal growth.

C. albicans CaCi-2 [2] = test: CaCi-2 growth inhibition in the presence of 8 μg/ml fluconazole (Alamar Blue); assay type: cell-based, Candida albicans
Protocol: Fluconazole was obtained from Sequoia Research Products, Ltd. and prepared in a 2 mg/ml stock solution in phosphate buffered saline (PBS). […] PBS (Catalog No. 21-040-CV) without calcium and magnesium was obtained from Cellgro. Penicillin/Streptomycin (Pen/Strep) was obtained from Gibco and prepared 100× in PBS.
RPMI medium (1×) was prepared by dissolving 10.4 g powdered medium in 800 ml water. A buffer of 34.52 g MOPS was added. While stirring, pH was adjusted to 7.0 with 10 N NaOH. Next, 10 ml uridine solution and 50 ml glucose solution were added. The final volume was adjusted to 1000 ml, and filter sterilized.
The following yeast strains were used in this study: C. albicans CaCi-2. Fungal inoculum was prepared as follows: 500 μl of strain was inoculated from cryopreserved stock into a 250-ml shaker flask containing 30 ml growth medium and shaken overnight at 30° C. The optical density (OD 600) of 1 ml fungal culture in a cuvette was read using a standard optical density reader (Eppendorf BioPhotometer Plus), with growth medium as a background blank. The desired volume of fungal inoculums was diluted to desired volume of fungal inoculums according to the following formula: (1/OD measured)×(Desired Final Volume of Inoculum)×0.3=Volume of fungal culture (μl) to add to desired volume of growth medium. When added to media in wells, this yields a calculated starting OD of the fungal inoculum of 0.00015.
Fluconazole stock solution was added to the fungal inoculum to achieve 8 μg/ml. Pen/Strep was added to the media to a 1% concentration (v/v). A Thermo Combi nL was used to dispense 20 μl/well of assay media into all wells. Geldanamycin was dispensed in positive control wells using Thermo Combi nL for a final concentration of 3 μM. Then, 100 nl of test compound was pinned from compound plates into assay plates using a CyBi-Well pin tool. A further 20 μl/well of culture was dispensed into the assay media in all wells. The plates were incubated in a humidified (90% humidity) Liconic incubator at 37° C. without agitation for 48 hours. Alamar Blue was diluted 1:40 in Ca/Mg-free PBS. To all plates, […] of the diluted Alamar Blue was added to the plates to a final dilution factor of 1:200. The plates were incubated for an additional 2 hours. Then, Relative Fluorescence Intensity (RFU) of each well was read on standard plate reader as a measure of relative fungal growth.

C. albicans CaCi-8 = test: microbe, parasite or virus in culture; assay type: cell-based, Candida albicans
Protocol: This subset was re-subjected to the primary assay and was also tested concurrently in two secondary assays. Secondary assay 1 measured chemosensitization of the more resistant CaCi-8 strain. Secondary assay 2 eliminated anything with inherently antifungal activity. […] A final assay (secondary assay 3) was incorporated to discard any compound displaying toxicity to mammalian fibroblasts. […] This screening campaign is also illustrated in FIG. 3B.
Those that inhibited growth in the resistant strain were also tested for toxicity against Candida in the absence of fluconazole and for toxicity against mammalian cells using a fluorescence reporter assay. The positive control for screening in the Candida and mammalian cell assays was the Hsp90 inhibitor geldanamycin (acting in concert with fluconazole; FIG. 4). Compounds that passed these four hurdles were binned through use of a Saccharomyces assay to determine whether the mechanism of action might be through the Hsp90 pathway, the calcineurin pathway, or an uncategorized mechanism.

[3] = tested on: NIH-3T3 mammalian fibroblasts; test: Counterscreen mammalian cell toxicity assay (fibroblast toxicity); assay type: cell-based, murine; details: for ** CaCi-2 to anti-target fold selectivity: fibroblast IC50 over CaCi-2 IC50 with fluconazole; for IC50: footnote: in the absence of fluconazole, read-out: Anti-target Potency (μM) Mean ± S.E.M Fibroblasts^b IC50
PBS solubility = details: PBS
[4] = in the presence of fluconazole, read-out: Target Potency (μM) Mean ± S.E.M CaCi-2^a IC50
[5] = in the presence of fluconazole, read-out: Target Potency (μM) Mean ± S.E.M CaCi-8^a IC50
[6] = 37° C., 48 hours, with 8 μg/mL (26 μM) fluconazole, average of at least three experiments
[7] = Table 12, read-out: CaCi-8 IC50 with 8 μg/ml fluconazole
[8] = 37° C., 48 hours, with 8 μg/mL (26 μM) fluconazole, average of at least three experiments, read-out: CaCi-8 IC50
[9] = 37° C., 48 hours, with 8 μg/mL (26 μM) fluconazole, average of at least three experiments, read-out: CaCi-2 IC50

| SMILES | Plasma Stability (Plasma stability) | Plasma Protein Binding (Plasma protein binding) | IC50 (C. albicans CaCi-2 [1]) | IC50 (C. albicans CaCi-2 [2]; [4]) | IC50 (C. albicans CaCi-8; [5]) | other results |
| --- | --- | --- | --- | --- | --- | --- |
| COC(=O)Cn1nc(-c2ccccc2)c2cc(F)ccc21 [Compound 49835889] | 1.0% | > 96% | > 26 µM | 4.63 µM | 6.98 µM | – |
| COC(=O)Cn1nc(-c2ccccc2)c2ccc(Cl)cc21 [Compound 49835818] | 90% | 18% | > 26 µM | 3.79 µM | 8.57 µM | ** CaCi-2 to anti-target fold selectivity [3]: 7.9; IC50 [3]: 29.9 µM |
| COC(=O)Cn1nc(-c2ccccc2C)c2ccccc21 [Compound 49835865] | < 1.0% | < 1.0% | > 26 µM | 5.5 µM | 7.25 µM | – |
| COC(=O)Cn1nc(-c2ccc(C(F)(F)F)cc2)c2ccccc21 [Compound 49835854] | 17% | 97% | > 26 µM | – | > 26 µM | IC50 [3]: 0.68 µM |
| COC(=O)Cn1nc(-c2cccc(OC)c2)c2ccccc21 [Compound 49835877] | 2.6% | 95% | > 26 µM | 0.44 µM | 1.21 µM | IC50 [3]: > 26 µM |
| COC(=O)Cn1nc(-c2ccccc2)c2ccc(F)cc21 [Compound 49835815] | 1.1% | 97% | > 26 µM | 5.1 µM | 8.34 µM | – |
| O=C1OCCC1n1nc(-c2ccccc2)c2ccccc21 (centres unmarked) [Compound 49835834] | PBS Solubility: <1.0 μM Plasma Protein Binding: ND Plasma Stability: <1.0% Purity (UPLC): 65% | – | > 26 µM | – | > 26 µM | PBS Solubility (PBS solubility): PBS Solubility: <1.0 μM Plasma Protein Binding: ND Plasma Stability: <1.0% Purity (UPLC): 65% |
| COC(=O)Cn1nc(-c2ccccc2)c2cc(C)ccc21 [Compound 49835874] | < 1.0% | 95% | > 26 µM | 3.28 µM | 5.33 µM | ** CaCi-2 to anti-target fold selectivity [3]: 21; IC50 [3]: 69.5 µM |
| COC(=O)Cn1ncc2ccccc21 [Compound 49835852] | < 1.0% | < 1.0% | – | – | – | IC50 [3]: 0.74 µM |
| COC(=O)Cn1nc(-c2ccccc2)c2ccc(C#N)cc21 [Compound 6-CN] | – | – | – | – | – | CaCi-2 IC50 (μM) (C. albicans CaCi-2 [2]; [6]): inactive; CaCi-8 IC50 (μM) (C. albicans CaCi-8; [6]): inactive |
| COC(=O)Cn1nc(-c2cccnc2)c2ccccc21 [drawing 228] | – | – | – | – | – | CaCi-2 IC50 (μM) (C. albicans CaCi-2 [2]): inactive; CaCi-8 IC50 (μM) (C. albicans CaCi-8; [6]): inactive |
| COC(=O)Cn1nc(-c2ccc(F)cc2)c2ccccc21 [Compound 49835876] | < 1.0% | 93% | > 26 µM | 6.26 µM | 10.2 µM | – |
| COC(=O)Cn1nc(-c2cccc(F)c2)c2ccccc21 [CID 49835858] | – | – | – | – | – | IC50 (C. albicans CaCi-2 [2]; Table 12, read-out: CaCi-2 IC50 with 8 μg/ml fluconazole): 1.4 µM; IC50 (C. albicans CaCi-8; [7]): 2.1 µM |
| COC(=O)Cn1nc(-c2ccccc2)c2ccc(C(F)(F)F)cc21 [Compound 6-CF3] | – | – | – | – | – | CaCi-2 IC50 (μM) (C. albicans CaCi-2 [2]; [6]): inactive; CaCi-8 IC50 (μM) (C. albicans CaCi-8; [6]): inactive |
| COC(=O)Cn1nc(-c2ccccc2)c2ccccc21 [Compound 3243873] | < 1.0% | 96% | > 26 µM | 1.86 ± 0.99 µM | 2.53 ± 1.13 µM | – |
| COC(=O)Cn1nc(-c2cncnc2)c2ccccc21 [drawing 229] | – | – | – | – | – | CaCi-2 IC50 (μM) (C. albicans CaCi-2 [2]; [6]): inactive; IC50 (C. albicans CaCi-8; [8]): 21.1 ± 3.3 µM |
| COC(=O)Cn1nc(-c2ccccc2)c2ccc(C)cc21 [Compound 49835872] | 6.5% | 98% | > 26 µM | 3.14 µM | 9.62 µM | ** CaCi-2 to anti-target fold selectivity [3]: 10; IC50 [3]: 31.6 µM |
| c1ccc(-c2n[nH]c3ccccc23)cc1 [Compound 300385] | > 99% | 98% | > 26 µM | 3 µM | > 26 µM | – |
| COC(=O)Cn1nc(-c2ccccc2OC)c2ccccc21 [Compound 49835850] | < 1.0% | 92% | > 26 µM | 6.21 µM | 10.2 µM | ** CaCi-2 to anti-target fold selectivity [3]: 0.17; IC50 [3]: 1.54 µM |
| COC(=O)Cn1nc(-c2cc(OC)cc(OC)c2)c2ccccc21 [Cpd 41] | – | – | – | – | – | CaCi-2 IC50 (μM) (C. albicans CaCi-2 [2]; [6]): inactive; CaCi-8 IC50 (μM) (C. albicans CaCi-8; [6]): inactive |
| COC(=O)Cn1nc(-c2ccc(F)cc2)c2ccccc21 [Cpd 32] | – | – | – | – | – | IC50 (C. albicans CaCi-2 [2]; [9]): 8.3 ± 2.8 µM; IC50 (C. albicans CaCi-8; [8]): 12.3 ± 3.9 µM |
| COC(=O)Cn1nc(-c2cnco2)c2ccccc21 | – | – | – | – | – | CaCi-2 IC50 (μM) (C. albicans CaCi-2 [2]; [6]): inactive; CaCi-8 IC50 (μM) (C. albicans CaCi-8; [6]): inactive |
| COC(=O)Cn1nc(-c2ccccc2)c2ccc(Cl)cc21 [Compound 6-Cl] | – | – | – | – | – | IC50 (C. albicans CaCi-2 [2]; [9]): 4 ± 1.3 µM; IC50 (C. albicans CaCi-8; [8]): 8.4 ± 0.5 µM |
| COC(=O)Cn1nc(C(C)(C)C)c2ccccc21 | – | – | – | – | – | CaCi-2 IC50 (μM) (C. albicans CaCi-2 [2]; [6]): inactive; CaCi-8 IC50 (μM) (C. albicans CaCi-8; [6]): inactive |
| COC(=O)Cn1nc(-c2ccccc2)c2cc(OC)ccc21 [Compound 5-OMe] | – | – | – | – | – | IC50 (C. albicans CaCi-2 [2]; [9]): 14.9 ± 5.7 µM; IC50 (C. albicans CaCi-8; [8]): 22.1 ± 6.2 µM |
| COC(=O)Cn1nc(-c2cccc(C)c2)c2ccccc21 [Compound 49835823] | 4.7% | 98% | > 26 µM | 0.65 µM | 1.34 µM | – |
| CCc1nn(CC(=O)OC)c2ccccc12 [—Et] | – | – | – | – | – | CaCi-2 IC50 (μM) (C. albicans CaCi-2 [2]; [6]): inactive; CaCi-8 IC50 (μM) (C. albicans CaCi-8; [6]): inactive |
| COC(=O)Cn1nc(-c2cccc(C)c2)c2ccccc21 [CID 49835823] | – | – | – | – | – | IC50 (C. albicans CaCi-2 [2]; in the presence of fluconazole, read-out: CaCi-2 growth inhibition IC50): 0.65 µM; IC50 (C. albicans CaCi-8; [7]): 1.3 µM |
